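Growth conditions: 96-well plates. Treatment: test compound, 48 hours, 5 concentrations. Analysis: linear interpolation between bracketing concentrations; unreached endpoints set to highest concentration. GI50 is the concentration that inhibits growth by half.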 The source made the active and inactive calls. Cut-off read from the data, not from the text of the source: active = GI50 up to about 1.1 µM and inactive = higher.
Key:
Test in all cases: NCI-60 cell line screen, 48 h
[1] = system: HOP-92
[2] = system: NCI-H23
[3] = system: OVCAR-4
[4] = system: SK-OV-3
[5] = system: SK-MEL-5
[6] = system: MOLT-4
[7] = system: NCI-H522
[8] = system: Malme-3M
[9] = system: SW-620
[10] = system: MDA-N
[11] = system: 786-0
[12] = system: NCI-H226
[13] = system: RPMI-8226
[14] = system: DLD-1
[15] = system: BT-549
[16] = system: DU-145
[17] = system: IGROV-1
[18] = system: RXF 393
[19] = system: SK-MEL-28
[20] = system: TK-10

With `CN(C)CCC(=O)N1C/C(=C/c2ccccc2)C(=O)/C(=C\c2ccccc2)C1` the GI50 [1] was 7.11 µM (inactive), the GI50 [2] was 2.29 µM (inactive) and the GI50 [3] was 2.17 µM (inactive). The GI50 [4] was 6.25 µM (inactive), the GI50 [5] was 1.45 µM (inactive) and the GI50 [6] was 0.313 µM (active). The GI50 [7] was 0.301 µM (active), the GI50 [8] was 2.16 µM (inactive) and the GI50 [9] was 0.275 µM (active). For the same compound, the GI50 [10] was 1.14 µM (inactive), the GI50 [11] was 1.49 µM (inactive) and the GI50 [12] was 5.55 µM (inactive). For the same compound, the GI50 [13] was 0.134 µM (active), the GI50 [14] was 0.931 µM (active) and the GI50 [15] was 0.883 µM (active). The GI50 [16] was 6.79 µM (inactive), the GI50 [17] was 2.59 µM (inactive) and the GI50 [18] was 2.11 µM (inactive). For the same compound, the GI50 [19] was 1.58 µM (inactive) and the GI50 [20] was 8.15 µM (inactive).
`CC[C@@]1(OC(=O)CN(C)C)C(=O)OCc2c1cc1n(c2=O)Cc2cc3ccccc3nc2-1` was tested, and the GI50 [1] was 0.119 µM (active), the GI50 [2] was 0.0865 µM (active) and the GI50 [3] was 0.482 µM (active). For the same compound, the GI50 [4] was 0.071 µM (active), the GI50 [5] was 0.0328 µM (active) and the GI50 [6] was 0.00295 µM (active). For the same compound, the GI50 [7] was 0.255 µM (active), the GI50 [8] was 0.347 µM (active) and the GI50 [9] was 0.098 µM (active). For the same compound, the GI50 [10] was 0.173 µM (active), the GI50 [11] was 0.0259 µM (active) and the GI50 [12] was 0.0356 µM (active). For the same compound, the GI50 [13] was 0.181 µM (active), the GI50 [14] was 0.323 µM (active) and the GI50 [15] was 0.0536 µM (active). The GI50 [16] was 0.013 µM (active), the GI50 [17] was 0.242 µM (active) and the GI50 [18] was 0.139 µM (active). The GI50 [19] was 0.308 µM (active) and the GI50 [20] was 1.93 µM (inactive).
For `COc1cc2c(c(OC)c1OC)-c1ccc(OC)c(=O)cc1C(NC(=O)c1ccc(N=[N+]=[N-])cc1)CC2` (stereo not given), the GI50 [1] was 0.0396 µM (active), the GI50 [2] was 0.0327 µM (active) and the GI50 [3] was 1.24 µM (inactive). For the same compound, the GI50 [4] was 0.0292 µM (active), the GI50 [5] was 0.0264 µM (active) and the GI50 [6] was 0.0411 µM (active). The GI50 [7] was 0.0175 µM (active), the GI50 [8] was 0.608 µM (active) and the GI50 [9] was 0.0312 µM (active). For the same compound, the GI50 [11] was 0.0446 µM (active), the GI50 [12] was 0.451 µM (active) and the GI50 [13] was 0.0359 µM (active). The GI50 [14] was 0.0413 µM (active), the GI50 [15] was 0.0507 µM (active) and the GI50 [16] was 0.0378 µM (active). For the same compound, the GI50 [17] was 0.0466 µM (active), the GI50 [18] was 0.0185 µM (active) and the GI50 [19] was 0.789 µM (active). For the same compound, the GI50 [20] was 13 µM (inactive).
For `COC(=O)Cc1cc(O)c2c(c1O)C(=O)c1ccccc1C2=O`, the GI50 [1] was 16.1 µM (inactive), the GI50 [2] was > 56 µM (inactive) and the GI50 [3] was > 100 µM (inactive). The GI50 [4] was 58.3 µM (inactive), the GI50 [5] was 68.2 µM (inactive) and the GI50 [6] was > 84.5 µM (inactive). For the same compound, the GI50 [7] was > 100 µM (inactive), the GI50 [8] was > 74 µM (inactive) and the GI50 [9] was > 100 µM (inactive). The GI50 [10] was > 100 µM (inactive), the GI50 [11] was 21.5 µM (inactive) and the GI50 [12] was 92.3 µM (inactive). The GI50 [13] was > 67.5 µM (inactive), the GI50 [14] was > 100 µM (inactive) and the GI50 [15] was > 62.4 µM (inactive). For the same compound, the GI50 [16] was > 96.2 µM (inactive), the GI50 [17] was > 83.8 µM (inactive) and the GI50 [18] was 30.3 µM (inactive). For the same compound, the GI50 [19] was > 100 µM (inactive) and the GI50 [20] was 39.4 µM (inactive).
In the case of `C/C(=C\CNc1ncnc2c1ncn2C1CCCCO1)COP(=O)(O)O` (stereo not given), the GI50 [1] was > 100 µM (inactive), the GI50 [2] was > 100 µM (inactive) and the GI50 [3] was > 100 µM (inactive). The GI50 [4] was > 100 µM (inactive), the GI50 [5] was > 100 µM (inactive) and the GI50 [6] was > 100 µM (inactive). The GI50 [7] was > 100 µM (inactive), the GI50 [8] was > 100 µM (inactive) and the GI50 [9] was > 100 µM (inactive). For the same compound, the GI50 [11] was > 100 µM (inactive), the GI50 [12] was > 100 µM (inactive) and the GI50 [13] was > 100 µM (inactive). For the same compound, the GI50 [14] was > 100 µM (inactive), the GI50 [17] was > 100 µM (inactive) and the GI50 [18] was > 100 µM (inactive). The GI50 [19] was > 100 µM (inactive) and the GI50 [20] was > 100 µM (inactive).
In the case of `CN(C)[C@@H]1C(O)=C(C(=O)NCNc2nc3[nH]nnc3c(=O)[nH]2)C(=O)[C@@]2(O)C(O)=C3C(=O)c4c(O)cccc4[C@@](C)(O)[C@H]3C[C@@H]12`, the GI50 [1] was 1.3 µM (inactive), the GI50 [2] was 35.3 µM (inactive) and the GI50 [3] was 8.63 µM (inactive). The GI50 [4] was 0.723 µM (active), the GI50 [5] was 1.9 µM (inactive) and the GI50 [6] was 0.288 µM (active). For the same compound, the GI50 [7] was 20.4 µM (inactive), the GI50 [8] was 0.773 µM (active) and the GI50 [9] was 0.471 µM (active). The GI50 [10] was 0.393 µM (active), the GI50 [11] was 0.637 µM (active) and the GI50 [12] was 1.73 µM (inactive). For the same compound, the GI50 [13] was 0.272 µM (active), the GI50 [14] was 29.7 µM (inactive) and the GI50 [15] was 6.7 µM (inactive). For the same compound, the GI50 [16] was 1.27 µM (inactive), the GI50 [17] was 15.9 µM (inactive) and the GI50 [18] was 0.518 µM (active). The GI50 [19] was 1.33 µM (inactive) and the GI50 [20] was 2.3 µM (inactive).
In the case of `COc1ccc2c(c1)CCc1c-2nc2cc3c(cc2c1O)OCO3`, the GI50 [1] was > 100 µM (inactive), the GI50 [2] was > 100 µM (inactive) and the GI50 [3] was > 100 µM (inactive). The GI50 [4] was > 100 µM (inactive), the GI50 [5] was > 100 µM (inactive) and the GI50 [6] was > 100 µM (inactive). For the same compound, the GI50 [7] was > 100 µM (inactive), the GI50 [8] was > 100 µM (inactive) and the GI50 [9] was > 100 µM (inactive). For the same compound, the GI50 [11] was > 100 µM (inactive), the GI50 [12] was > 100 µM (inactive) and the GI50 [13] was > 100 µM (inactive). For the same compound, the GI50 [14] was > 100 µM (inactive), the GI50 [17] was > 100 µM (inactive) and the GI50 [18] was > 100 µM (inactive). For the same compound, the GI50 [19] was > 100 µM (inactive) and the GI50 [20] was > 100 µM (inactive).
For `CCN(CC)CCNc1ccc2nnn3c4ccccc4c(=O)c1c23`, the GI50 [1] was 2.48 µM (inactive), the GI50 [2] was 5.81 µM (inactive) and the GI50 [3] was 3.51 µM (inactive). The GI50 [4] was 17.4 µM (inactive), the GI50 [5] was 3.08 µM (inactive) and the GI50 [6] was 1.66 µM (inactive). For the same compound, the GI50 [7] was 4.75 µM (inactive), the GI50 [8] was 4.01 µM (inactive) and the GI50 [9] was 1.43 µM (inactive). For the same compound, the GI50 [11] was 4.3 µM (inactive), the GI50 [12] was 2.01 µM (inactive) and the GI50 [13] was 2.45 µM (inactive). For the same compound, the GI50 [14] was 4.19 µM (inactive), the GI50 [17] was 6.98 µM (inactive) and the GI50 [18] was 6.21 µM (inactive). The GI50 [19] was 4.65 µM (inactive) and the GI50 [20] was 4.39 µM (inactive).

From ChEMBL document CHEMBL1201862, “PubChem BioAssay data set” (2004)
